Measured values reported in patent US11952377B2, “Quinolines and azaquinolines as inhibitors of CD38” (BOEHRINGER INGELHEIM INTERNATIONAL GMBH, priority 2021, dated 2024).

Target: Human CD38 (Homo sapiens (Human), UniProt P28907)
Experiment: CD38 enzyme assay
Assay type: biochemical
Details: 2 nM CD38, 30 min preincubation at 25° C., absorbance at 405 nm after 60 minutes
Description: [formula] where CMPD is the value for the individual compound treated well, MIN is the average of the values of the 4-(((1r,4r)-4-(2-methoxyethoxy)cyclohexyl)amino)-1-methyl-6-(thiazol-5-yl)quinolin-2(1H)-one positive control wells and MAX is the average of the values of the DMSO negative control wells.
The % inhibition values were plotted as a function of compound concentration and the following 4-parameter fit was applied to derive the IC50 values:
[formula] where top and bottom are normally allowed to float, but may be fixed at 100 or 0 respectively in a 3-parameter fit. The Hill Coefficient is normally allowed to float but may also be fixed at 1 in a 3-parameter fit. Y is the % inhibition and X is the compound concentration.

Sequence of Human CD38 (P28907 whole entry): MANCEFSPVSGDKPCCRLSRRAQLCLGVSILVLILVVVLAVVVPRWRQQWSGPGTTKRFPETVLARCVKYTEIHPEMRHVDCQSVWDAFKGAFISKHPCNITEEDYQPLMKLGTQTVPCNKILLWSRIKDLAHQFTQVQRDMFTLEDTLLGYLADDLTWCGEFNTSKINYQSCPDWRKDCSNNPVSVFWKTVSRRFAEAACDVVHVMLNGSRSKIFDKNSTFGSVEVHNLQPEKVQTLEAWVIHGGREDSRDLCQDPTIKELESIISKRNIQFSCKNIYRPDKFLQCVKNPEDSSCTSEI

| Structure (SMILES) | IC50 |
| --- | --- |
| Cn1c(=O)cc(N[C@H]2CC[C@H](NC3COC3)CC2)c2cc(-n3ccnc3)ccc21 [Example 2, 6-(1H-imidazol-1-yl)-1-methyl-4-(((1r,4r)-4-(oxetan-3-ylamino)cyclohexyl)amino)quinolin-2(1H)-one] | 0.01 to 0.1 µM |
| COCCO[C@H]1CC[C@H](Nc2cc(=O)n(C)c3ccc(-n4ccnc4)nc23)CC1 [Example 3, 6-(1H-imidazol-1-yl)-4-(((1r,4r)-4-(2-methoxyethoxy)cyclohexyl)amino)-1-methyl-1,5-naphthyridin-2(1H)-one] | 0.01 to 0.1 µM |
| Cn1c(=O)cc(N[C@H]2CC[C@H](C(C)(C)O)CC2)c2nc(-n3ccnc3)ccc21 [Example 4, 4-(((1r,4r)-4-(2-hydroxypropan-2-yl)cyclohexyl)amino)-6-(1H-imidazol-1-yl)-1-methyl-1,5-naphthyridin-2(1H)-one] | 0.01 to 0.1 µM |
| Cn1c(=O)cc(N[C@H]2CC[C@H](C(C)(C)O)CC2)c2cc(-n3ccnc3)ncc21 [Example 5, 4-(((1r,4r)-4-(2-hydroxypropan-2-yl)cyclohexyl)amino)-6-(1H-imidazol-1-yl)-1-methyl-1,7-naphthyridin-2(1H)-one] | 0.01 to 0.1 µM |
| COCCO[C@H]1CC[C@H](Nc2cc(=O)n(C)c3cnc(-n4ccnc4)cc23)CC1 [Example 6, 6-(1H-imidazol-1-yl)-4-(((1r,4r)-4-(2-methoxyethoxy)cyclohexyl)amino)-1-methyl-1,7-naphthyridin-2(1H)-one] | 0.01 to 0.1 µM |
| COCCO[C@H]1CC[C@H](Nc2cc(=O)n(C)c3cnc(-n4ccnc4)nc23)CC1 [Example 7, 2-(1H-imidazol-1-yl)-8-(((1r,4r)-4-(2-methoxyethoxy)cyclohexyl)amino)-5-methylpyrido[3,2-d]pyrimidin-6(5H)-one] | 0.01 to 0.1 µM |
| Cn1c(=O)cc(Nc2ccc(OCCN3CCOCC3)nc2)c2nc(-n3ccnc3)ncc21 [Example 10, 2-(1H-imidazol-1-yl)-5-methyl-8-((6-(2-morpholinoethoxy)pyridin-3-yl)amino)pyrido[3,2-d]pyrimidin-6(5H)-one] | 0.01 to 0.1 µM |
| Cn1c(=O)cc(N[C@H]2CC[C@H](NCC(F)(F)F)CC2)c2cc(-n3ccnc3)ccc21 [Example 11, 6-(1H-imidazol-1-yl)-1-methyl-4-(((1r,4r)-4-((2,2,2-trifluoroethyl)amino)cyclohexyl)amino)quinolin-2(1H)-one] | 0.01 to 0.1 µM |
| Cn1c(=O)cc(N[C@H]2CC[C@H](C(C)(C)O)CC2)c2cc(-n3ccnc3)ccc21 [Example 12, 4-(((1r,4r)-4-(2-hydroxypropan-2-yl)cyclohexyl)amino)-6-(1H-imidazol-1-yl)-1-methylquinolin-2(1H)-one] | 0.01 to 0.1 µM |
| Cn1c(=O)cc(NC2CCN(S(C)(=O)=O)CC2)c2cc(-n3ccnc3)ccc21 [Example 13] | 0.01 to 0.1 µM |
| CN(C)C(=O)CO[C@H]1CC[C@H](Nc2cc(=O)n(C)c3ccc(-n4ccnc4)cc23)CC1 [Example 14, 2-(((1r,4r)-4-((6-(1H-imidazol-1-yl)-1-methyl-2-oxo-1,2-dihydroquinolin-4-yl)amino)cyclohexyl)oxy)-N,N-dimethylacetamide] | 0.01 to 0.1 µM |
| Cn1c(=O)cc(Nc2ccc(OCC(F)(F)F)nc2)c2cc(-n3ccnc3)ccc21 [Example 15, 6-(1H-imidazol-1-yl)-1-methyl-4-((6-(2,2,2-trifluoroethoxy)pyridin-3-yl)amino)quinolin-2(1H)-one] | 0.01 to 0.1 µM |
| CN(C)CCOc1ccc(Nc2cc(=O)n(C)c3ccc(-n4ccnc4)cc23)cn1 [Example 17, 4-((6-(2-(dimethylamino)ethoxy)pyridin-3-yl)amino)-6-(1H-imidazol-1-yl)-1-methylquinolin-2(1H)-one] | 0.01 to 0.1 µM |
| Cn1c(=O)cc(N[C@H]2CC[C@H](OCCN3CCCC3)CC2)c2cc(-n3ccnc3)ccc21 [Example 18, 6-(1H-imidazol-1-yl)-1-methyl-4-(((1r,4r)-4-(2-(pyrrolidin-1-yl)ethoxy)cyclohexyl)amino)quinolin-2(1H)-one] | 0.01 to 0.1 µM |
| CN(C)C(=O)CO[C@H]1CC[C@H](Nc2cc(=O)n(C)c3cnc(-n4ccnc4)nc23)CC1 [Example 21, 2-(((1r,4r)-4-((2-(1H-imidazol-1-yl)-5-methyl-6-oxo-5,6-dihydropyrido[3,2-d]pyrimidin-8-yl)amino)cyclohexyl)oxy)-N,N-dimethylacetamide] | 0.01 to 0.1 µM |
| Cn1c(=O)cc(Nc2ccc(OCCN3CCCC3)nc2)c2nc(-n3ccnc3)ncc21 [Example 25] | 0.01 to 0.1 µM |

The remaining lines, values ahead:

| IC50 | Structure (SMILES) |
| --- | --- |
| 0.01 to 0.1 µM | COCCO[C@H]1CC[C@H](Nc2cc(=O)n(C)c3ccc(-n4ccnc4)cc23)CC1 [Example 1, 6-(1H-imidazol-1-yl)-4-(((1r,4r)-4-(2-methoxyethoxy)cyclohexyl)amino)-1-methylquinolin-2(1H)-one] |
| < 0.01 µM | Cn1c(=O)cc(N[C@H]2CC[C@H](C(C)(C)O)CC2)c2nc(-n3ccnc3)ncc21 [Example 8, 8-(((1r,4r)-4-(2-hydroxypropan-2-yl)cyclohexyl)amino)-2-(1H-imidazol-1-yl)-5-methylpyrido[3,2-d]pyrimidin-6(5H)-one] |
| < 0.01 µM | Cn1c(=O)cc(Nc2ccc(C(F)(F)F)cc2)c2nc(-n3ccnc3)ncc21 [Example 9, 2-(1H-imidazol-1-yl)-5-methyl-8-((4-(trifluoromethyl)phenyl)amino)pyrido[3,2-d]pyrimidin-6(5H)-one] |
| < 0.01 µM | Cn1c(=O)cc(N[C@H]2CC[C@H](NCC(C)(F)F)CC2)c2nc(-n3ccnc3)ncc21 [Example 19, 8-(((1r,4r)-4-((2,2-difluoropropyl)amino)cyclohexyl)amino)-2-(1H-imidazol-1-yl)-5-methylpyrido[3,2-d]pyrimidin-6(5H)-one] |
| < 0.01 µM | Cn1c(=O)cc(Nc2ccc(C#N)cc2)c2nc(-n3ccnc3)ncc21 [Example 22, 4-((2-(1H-imidazol-1-yl)-5-methyl-6-oxo-5,6-dihydropyrido[3,2-d]pyrimidin-8-yl)amino)benzonitrile] |
| < 0.01 µM | Cn1c(=O)cc(N[C@H]2CC[C@H](NCC(F)(F)F)CC2)c2nc(-n3ccnc3)ncc21 [Example 23, 2-(1H-imidazol-1-yl)-5-methyl-8-(((1r,4r)-4-((2,2,2-trifluoroethyl)amino)cyclohexyl)amino)pyrido[3,2-d]pyrimidin-6(5H)-one] |
| < 0.01 µM | CO[C@H]1CC[C@H](Nc2cc(=O)n(C)c3cnc(-n4ccnc4)nc23)CC1 [Example 24, 2-(1H-imidazol-1-yl)-8-(((1r,4r)-4-methoxycyclohexyl)amino)-5-methylpyrido[3,2-d]pyrimidin-6(5H)-one] |
| < 0.01 µM | Cn1c(=O)cc(NC2CCC(F)(F)CC2)c2nc(-n3ccnc3)ncc21 [Example 26, 8-((4,4-difluorocyclohexyl)amino)-2-(1H-imidazol-1-yl)-5-methylpyrido[3,2-d]pyrimidin-6(5H)-one] |
| < 0.01 µM | Cn1c(=O)cc(N[C@H]2CC[C@H](C3(O)CC3)CC2)c2nc(-n3ccnc3)ncc21 [Example 27, 8-(((1r,4r)-4-(1-hydroxycyclopropyl)cyclohexyl)amino)-2-(1H-imidazol-1-yl)-5-methylpyrido[3,2-d]pyrimidin-6(5H)-one] |
